How the values were obtained:
SK2 = target: SK2; set-up: method as in PMID 21940750; settings: cited from earlier work
SPHK1 = target: T1, SPHK1 (Homo sapiens, UniProt Q9NYA1); test: Sphingosine kinase 1 activity assay (Adapta screening system); assay type: biochemical; settings: 20 μM compound; for inhibition at 20 µM: read-out: SK1 inhibition; for SK1 inhibitory effect (in words): compared with PF-543
T1 construct: purchased Thermo Fisher Scientific

[1] = Liver microsomal stability, human (HLM); assay type: in vitro ADME; settings: human liver microsomes, NADPH
Description: (§1) Microsomal incubations were conducted in triplicate in 0.1 M potassium phosphate buffer (pH 7.4) in a clean 1.5 mL eppendorf tube. […] HLM was added and the mixture was pre-incubated at 37 °C in a shaking incubator at approximately 350 rpm for 5 min under Thermo mixer (Eppendorf., Hamburg, Germany). Reactions were initiated by the addition of 1 mM NADPH and were then quenched by adding 40 µL of ice-cold acetonitrile containing 10 µM chlorproamide (CPP) as an internal standard at 0, 30 min. The incubation mixtures were then centrifuged at 15,000× g for 5 min at 4 °C. A 2 µL aliquot of the supernatant was directly injected into the LC-MS/MS system. The LC-MS/MS system consisted of the Nexera XR HPLC system (Shimadzu Co., Kyoto, Japan) coupled to the TSQ Vantage triple quadrupole mass spectrometer equipped with Xcalibur version 1.1.1 (Thermo Fisher Scientific Inc., Waltham, MA, USA).

[2] = Liver microsomal stability, dog (DLM); assay type: in vitro ADME; settings: dog liver microsomes, NADPH
Description: [Worded in the source for another species; this species is reported under the same test.] as §1

[3] = Liver microsomal stability, rat (RLM); assay type: in vitro ADME; settings: rat liver microsomes, NADPH
Description: [Worded in the source for another species; this species is reported under the same test.] as §1

[4] = Liver microsomal stability, mouse (MLM); assay type: in vitro ADME; settings: mouse liver microsomes, NADPH
Description: [Worded in the source for another species; this species is reported under the same test.] as §1

SPHK2 = target: T2, SPHK2 (Homo sapiens, UniProt Q9NRA0); test: Sphingosine kinase 2 activity assay (Adapta screening system); assay type: biochemical; settings: 20 μM compound
T2 construct: purchased Thermo Fisher Scientific
T2 sequence (Q9NRA0 1-654): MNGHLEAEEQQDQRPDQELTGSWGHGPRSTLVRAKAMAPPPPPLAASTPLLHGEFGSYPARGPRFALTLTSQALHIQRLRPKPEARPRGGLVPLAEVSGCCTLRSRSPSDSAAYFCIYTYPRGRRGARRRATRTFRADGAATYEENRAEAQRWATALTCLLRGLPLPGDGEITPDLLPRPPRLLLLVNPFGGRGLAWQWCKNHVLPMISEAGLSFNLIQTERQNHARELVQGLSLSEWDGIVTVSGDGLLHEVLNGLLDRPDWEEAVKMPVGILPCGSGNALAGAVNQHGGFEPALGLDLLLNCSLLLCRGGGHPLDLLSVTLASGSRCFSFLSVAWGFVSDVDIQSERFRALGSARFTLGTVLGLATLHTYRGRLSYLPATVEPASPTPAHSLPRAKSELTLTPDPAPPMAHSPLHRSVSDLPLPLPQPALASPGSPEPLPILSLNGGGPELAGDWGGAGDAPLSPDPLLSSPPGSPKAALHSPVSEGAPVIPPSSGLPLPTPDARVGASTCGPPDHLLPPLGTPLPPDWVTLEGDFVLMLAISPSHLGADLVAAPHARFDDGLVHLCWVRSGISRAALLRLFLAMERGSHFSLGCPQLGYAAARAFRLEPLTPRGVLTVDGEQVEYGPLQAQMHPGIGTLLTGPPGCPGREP
Description: […]. The sphingosine kinase 1 activity assay used 0.04–0.16 ng SPHK1, 50 μM sphingosine lipid substrate in 32.5 mM HEPES pH 7.5, 0.005% BRIJ 35, 5 mM MgCl2, 0.5 mM ethylene glycol-bis(β-aminoethyl ether)-N,N,N′,N′-tetraacetic acid (EGTA). The sphingosine kinase 2 activity assay detected 35 - 140 ng SPHK2, 50 μM sphingosine lipid substrate in 32.5 mM HEPES pH 7.5, 0.5 mM EGTA, 1.5 mM MgCl2.

T1 sequence (Q9NYA1 whole entry): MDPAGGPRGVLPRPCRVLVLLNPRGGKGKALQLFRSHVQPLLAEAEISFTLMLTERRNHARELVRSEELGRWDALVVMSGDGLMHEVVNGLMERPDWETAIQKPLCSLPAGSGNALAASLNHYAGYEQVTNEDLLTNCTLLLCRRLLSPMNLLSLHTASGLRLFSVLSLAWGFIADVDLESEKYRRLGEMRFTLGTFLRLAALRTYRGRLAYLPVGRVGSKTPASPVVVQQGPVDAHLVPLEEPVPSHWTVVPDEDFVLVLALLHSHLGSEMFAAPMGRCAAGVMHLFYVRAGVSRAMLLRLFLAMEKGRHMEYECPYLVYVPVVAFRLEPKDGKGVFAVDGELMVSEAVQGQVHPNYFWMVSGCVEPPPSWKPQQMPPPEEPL

| inhibition at 20 µM (SPHK1) | SK1 inhibitory effect (in words) (SPHK1) | Compound | further results |
| --- | --- | --- | --- |
| 100% | – | O=S(=O)(Cc1cccc(OCc2ccc(CN3CC[C@H](O)C3)cc2)c1)c1ccccc1 [compound 3, (S)-1-(4-((3-((Phenylsulfonyl)methyl)phenoxy)methyl)benzyl)pyrrolidin-3-ol] | – |
| 100% | – | O=S(=O)(Cc1cc(F)cc(OCc2ccc(CN3CC[C@H](O)C3)cc2)c1)c1ccccc1 [compound 6, (S)-1-(4-((3-fluoro-5-((phenylsulfonyl)methyl)phenoxy)methyl)benzyl)pyrrolidin-3-ol] | – |
| – | reduced | O=S(=O)(Cc1cc(F)cc(OCc2ccc(CN3CCC(O)CC3)cc2)c1)c1ccccc1 [compound 7, 1-(4-((3-Fluoro-5-((phenylsulfonyl)methyl)phenoxy)methyl)benzyl)piperidin-4-ol] | – |

Continued, compound first:

| Compound | inhibition at 20 µM (SPHK1) | SK1 inhibitory effect (in words) (SPHK1) | further results |
| --- | --- | --- | --- |
| CCCCCCCCc1ccc(CC[C@@](N)(CO)COC)cc1 [ROME, (R)-FTY720-OMe] | – | – | Ki (SK2): 16 µM |
| O=S(=O)(Cc1cccc(OCc2ccc(CN3CCC[C@@H]3CO)cc2)c1)c1ccccc1 [compound 2, (R)-(1-(4-((3-((Phenylsulfonyl)methyl)phenoxy)methyl)benzyl)pyrrolidin-2-yl)methanol] | 100% | – | – |
| O=S(=O)(Cc1cccc(OCc2ccc(CN3CCC(O)CC3)cc2)c1)c1ccccc1 [compound 4, 1-(4-((3-((Phenylsulfonyl)methyl)phenoxy)methyl)benzyl)piperidin-4-ol] | – | reduced | – |
| O=S(=O)(Cc1cc(F)cc(OCc2ccc(CN3CCC[C@@H]3CO)cc2)c1)c1ccccc1 [compound 5, (R)-(1-(4-((3-Fluoro-5-((phenylsulfonyl)methyl)phenoxy)methyl)benzyl)pyrrolidin-2-yl)methanol] | 100% | – | HLM microsomal stability (% remaining during 30 min) [1]: 7.6 % remaining; DLM microsomal stability (% remaining during 30 min) [2]: 5.5 % remaining; RLM microsomal stability (% remaining during 30 min) [3]: 6.8 % remaining; MLM microsomal stability (% remaining during 30 min) [4]: 9.8 % remaining |
| O=S(=O)(Cc1cc(O)cc(OCc2ccc(CN3CCC[C@@H]3CO)cc2)c1)c1ccccc1 [compound 8, (R)-3-((4-((2-(Hydroxymethyl)pyrrolidin-1-yl)methyl)benzyl)oxy)-5-((phenylsulfonyl)methyl)phenol] | – | – | SK2 inhibitory effect (in words) (SPHK2): showed an inhibitory effect against SK2 alone |
| O=S(=O)(Cc1cc(O)cc(OCc2ccc(CN3CCC(O)CC3)cc2)c1)c1ccccc1 [compound 10, 1-(4-((3-Hydroxy-5-((phenylsulfonyl)methyl)phenoxy)methyl)benzyl)piperidin-4-ol] | – | reduced | – |

From paper PMC7321251 (Molecules, 2020)
